The compounds below were run on brain myelination (myelin water fraction) (assay: Cross-sectional correlation analysis (GLM) of infant formula nutrient composition against brain myelination, measured as MWF by mcDESPOT MRI). Conditions: children up to 5 years fed different infant formulas during infancy; voxel-wise correlations, p<0.05 corrected.
Type: in vivo, human
Procedure: MRI brain scans of infants and children between 0 and 5 years were acquired using a white matter imaging technique. This technique provides a quantitative measure, the Myelin Water Fraction (MWF), which is a surrogate marker of myelin content. When mapped as a function of time across early childhood, myelination trajectories can be generated.
Infant formula composition: six infant formulas fed to infants participating in study were analyzed for their composition/level of myelin-relevant nutrients.
Infants included in this study were drawn from a larger longitudinal study of normal brain and behavioral development: the Brown university Assessment of Myelination and Behavior Across Maturation (BAMBAM). To focus on neurotypical development, children with known potential risk factors for learning, neurologic, or psychiatric disorders were specifically excluded during recruitment and enrollment. Thus, children with in utero alcohol or illicit substance exposure, premature (<37 weeks gestation) or multiple birth, fetal ultrasound abnormalities, complicated pregnancy (e.g., preeclampsia), APGAR scores <8, NICU admission, neurological disorder (e.g., head injury, epilepsy), psychiatric or developmental disorders in the infant, parents or siblings (including maternal depression requiring medication) were excluded. Ongoing screenings, such as the MCAT for autism, or CBCL for behavioral problems, were further used to remove enrolled children with clinically concerning behaviors or overt medical conditions (such as autism spectrum disorders).
A combination of retrospective and prospective data were acquired from parents via detailed medical histories and parental interview on type of infant formula used, percentage of breastfeeding to formula feeding, and length of exclusive breastfeeding. This information was updated at each study visit, which occurred approximately every 6 months for children under 2 years, and yearly for older children. Using this information, children were categorized into one of 2 groups: #1. Exclusively formula-fed; and #2. Exclusively breastfed for at least 90 days (3 months). Children who were fed a combination of breastmilk and formula within 3 months were excluded from our analysis. Infants within the exclusively formula-fed group were further sub-divided based on parental reports of the main infant formula used throughout the first 3 months. Main formula was defined as that given 90% of the time or more (in the case were parents used an alternate brand during vacation, for example).
Using these criteria, 94 exclusively formula-fed infants and young children were selected into group #1. These included 13 children who received formula #2; 28 who received formula #5; 8 who received formula #3; 39 who received formula #4; 5 who received formula #1 and 1 who received formula #6. A sample of 52 exclusively breast-fed infants were also selected and matched to the over formula-fed group with regards to mean age, gestation duration, birth weight, male:female ratio, ethnicity ratio, maternal education, family size, and number of languages spoken in the home (in addition to English).
Each infant was scanned using the mcDESPOT (multicomponent Driven Equilibrium Single Pulse Observation of T1 and T2) white matter imaging technique Deoni et al. (Magn. Reson. Med. 2008, 60:1372-1387), which provides a quantitative measure of the myelin water fraction (MWF) at each imaging point throughout the brain. All infants were scanned during natural (i.e. non-sedated) sleep using acoustically-muffled mcDESPOT imaging protocols. Total imaging times ranged from 19 minutes for the youngest toddlers to 24 minutes for the older 4 year-old children.
All data were acquired on a Siemens 3T Tim Trio scanner equipped with a 12 channel head RF array.
For [Ca] [Calcium], the “nutritional drivers for myelination (final general linear model)” value (“nutritional drivers for myelination” below) was “identified drivers”. In the case of C[N+](C)(C)CCO [Choline], the “nutritional drivers for myelination” value is reported as “identified drivers”. [Mg] [Magnesium] was tested, and the “nutritional drivers for myelination” value was “identified drivers”. [P] [Phosphorus] was tested, and the “nutritional drivers for myelination” value was “identified drivers”. For Iron, the “nutritional drivers for myelination” value was “identified drivers”. In the case of Vitamin B12, the “nutritional drivers for myelination” value is reported as “identified drivers”. In the case of Zinc, the “nutritional drivers for myelination” value is reported as “identified drivers”. For sphingomyelin, the “nutritional drivers for myelination” value was “identified drivers”.

Same assay, conditions: children up to 5 years fed different infant formulas; in particular in the visual cortex
For CCCCC/C=C\C/C=C\C/C=C\C/C=C\CCCC(=O)O [ARA, arachidonic acid], the “association with myelination (myelin water fraction) over time in the brain” value was “significant association with myelination”.

From patent publication US20180360090A1, “NUTRITIONAL COMPOSITIONS AND INFANT FORMULAS TO PROMOTE MYELINATION IN THE BRAIN” (NESTEC S.A., priority 2015, published 2018)
